In assay [1] the test system is Staphylococcus aureus. Description: Inhibition of planktonic growth of Staphylococcus aureus SH1000 after 48 hrs. The note with it: SH1000, 48 h. Type of assay: organism-based.
The subject of assay [2] is Escherichia coli. Description: Inhibition of planktonic growth of Escherichia coli TG1 after 24 hrs. Type of assay: organism-based. The note with it: TG1, 24 h.
Assay [3] concerns Salmonella typhimurium. The assay can be described thus: Antibiofilm activity against Salmonella typhimurium ATCC 14028 after 24 hrs by crystal violet staining based assay. Format: functional, organism-based, Salmonella enterica subsp. enterica serovar Typhimurium. The note with it: Salmonella enterica, ATCC 14028, 24 h.
Assay [4] relates to Escherichia coli. The assay can be described thus: Antibiofilm activity against Escherichia coli TG1 after 24 hrs by crystal violet staining based assay. Format: functional, organism-based. The note with it: TG1, 24 h.
Assay [5] deals with Staphylococcus aureus. Description: Antibiofilm activity against Staphylococcus aureus SH1000 after 48 hrs by crystal violet staining based assay. The following applies: SH1000, 48 h. Type of assay: functional, organism-based.
In assay [6] the test system is Pseudomonas aeruginosa. The assay can be described thus: Antibiofilm activity against Pseudomonas aeruginosa PA14 after 24 hrs by crystal violet staining based assay. The following applies: PA14, 24 h. Format: functional, organism-based.
Assay [7] deals with Salmonella typhimurium. The assay can be described thus: Inhibition of planktonic growth of Salmonella typhimurium ATCC 14028 after 24 hrs. Type of assay: organism-based, Salmonella enterica subsp. enterica serovar Typhimurium. The following applies: Salmonella enterica, ATCC 14028, 24 h.

A value given as a limit tells only on which side of the number the result lay.

Regarding `Nc1ncc(-c2ccc(Br)cc2)n1CCCn1c(-c2ccc(Br)cc2)cnc1N`, the IC50 came out at 22 µM in assay [1]; 9.93 µM in assay [2]; 2.7 µM in assay [3]; 6.3 µM in assay [4]; 15 µM in assay [5]; 2.5 µM in assay [6]. Also, the IC50 in assay [7] worked out at 11.5 µM.
As to `Nc1ncc(-c2ccc(Cl)cc2)n1CCCCn1c(-c2ccc(Cl)cc2)cnc1N`, the half-inhibitory concentration (IC50) in assay [1] was 130 µM; in assay [2], 16.6 µM; in assay [3] it was 5.3 µM; in assay [4] it was 12.3 µM; in assay [5], 180 µM; in assay [6] it was 3.1 µM. The half-inhibitory concentration (IC50) in assay [7] was found to be 64 µM.
As to `Nc1ncc(-c2ccc(F)cc2)n1CCCCCn1c(-c2ccc(F)cc2)cnc1N`, the IC50 amounted to 59.7 µM in assay [1]; 3.74 µM in assay [2]; 4.8 µM in assay [3]; 7.5 µM in assay [4]; 60.7 µM in assay [5]; 12 µM in assay [6]. This molecule also registered an IC50 in assay [7] of 85.4 µM.
As for `Nc1ncc(-c2ccc(Br)cc2)n1CCCCn1c(-c2ccc(Br)cc2)cnc1N`, the IC50 in assay [1] is 9.17 µM; in assay [2] it was 6.09 µM; in assay [3], 3.9 µM; in assay [4], 6.4 µM; in assay [5], 7.2 µM; in assay [6], 3.1 µM. The molecule also registered an IC50 in assay [7] of 200 µM.
Regarding `Brc1ccc(-c2cnc(NCCCCCNc3ncc(-c4ccc(Br)cc4)[nH]3)[nH]2)cc1`, the IC50 in assay [1] was found to be 26.4 µM; in assay [2] it was 22.4 µM; in assay [3], 6.5 µM; in assay [4] it was 10.5 µM; in assay [5], 12 µM; in assay [6] it was 13.4 µM. The molecule also displayed an IC50 in assay [7] of 35.9 µM.
As to `Nc1ncc(-c2ccc(F)cc2)n1CCCCCCCCn1c(-c2ccc(F)cc2)cnc1N`, the IC50 was 11.7 µM in assay [1]; 7.13 µM in assay [2]; 1.5 µM in assay [3]; 7 µM in assay [4]; 22.4 µM in assay [5]; 12.2 µM in assay [6]. The IC50 in assay [7] came to 100 µM.
Regarding `Fc1ccc(-c2cnc(NCCCCCNc3ncc(-c4ccc(F)cc4)[nH]3)[nH]2)cc1`, the IC50 in assay [1] was 105 µM; in assay [2] it was 16.4 µM; in assay [3], 7.6 µM; in assay [4], 7 µM; in assay [5], 150 µM; in assay [6], 1.7 µM. It took 85.4 µM to reach half-maximal inhibition in assay [7] (IC50).
For `Nc1ncc(-c2ccc(Cl)cc2)n1CCCCCn1c(-c2ccc(Cl)cc2)cnc1N`, the IC50 amounted to 24.3 µM in assay [1]; 13.4 µM in assay [2]; 5.1 µM in assay [3]; 12 µM in assay [4]; 13.5 µM in assay [5]; 6.6 µM in assay [6]. In addition, the IC50 in assay [7] is 19.1 µM.
Take `Brc1ccc(-c2cnc(NCCCNc3ncc(-c4ccc(Br)cc4)[nH]3)[nH]2)cc1`: the IC50 in assay [1] was 29.2 µM; in assay [2] it was 4.77 µM; in assay [3] it was 5.5 µM; in assay [4], 4.1 µM; in assay [5], 24.2 µM; in assay [6], 11.2 µM. It took 11.9 µM to reach half-maximal inhibition in assay [7] (IC50).
As for `Nc1ncc(-c2ccccc2)n1CCCCCCCn1c(-c2ccccc2)cnc1N`, the IC50 in assay [1] was 32.7 µM; in assay [2] it was > 800 µM; in assay [3] it was 3.7 µM; in assay [4], 8 µM; in assay [5] it was 11.7 µM; in assay [6], 3.7 µM. For the same molecule, the IC50 in assay [7] was > 400 µM.
As to `Nc1ncc(-c2ccc(F)cc2)n1CCCn1c(-c2ccc(F)cc2)cnc1N`, the IC50 in assay [1] turned out to be 124 µM; in assay [2], 10.7 µM; in assay [3], 7.4 µM; in assay [4] it was 7.5 µM; in assay [5], 171 µM; in assay [6] it was 11.6 µM. Moreover, in assay [7], the IC50 turned out to be 103 µM.
Take `Nc1ncc(-c2ccccc2)n1CCCCCCCCn1c(-c2ccccc2)cnc1N`: the IC50 in assay [1] is 15.3 µM; in assay [2] it was 6.13 µM; in assay [3] it was 16.1 µM; in assay [4], 2.9 µM; in assay [5], 22.2 µM; in assay [6], 8.7 µM. Also, in assay [7], the half-inhibitory concentration (IC50) was > 400 µM.
With `Nc1ncc(-c2ccc(F)cc2)n1CCCCn1c(-c2ccc(F)cc2)cnc1N`, the IC50 in assay [1] turned out to be 27 µM; in assay [2], 77.3 µM; in assay [3] it was 11.4 µM; in assay [4], 25.4 µM; in assay [5], 24.4 µM; in assay [6], 11.1 µM. Besides, the IC50 in assay [7] turned out to be 50 µM.
Consider `Nc1ncc(-c2ccc(Br)cc2)n1CCCCCCCCn1c(-c2ccc(Br)cc2)cnc1N`, for which the IC50 in assay [1] is 2 µM; in assay [2], 2.99 µM; in assay [3], 7.7 µM; in assay [4] it was 0.8 µM; in assay [5], 2.8 µM; in assay [6], 4.5 µM. For the same molecule, the IC50 in assay [7] was > 400 µM.
On to `Nc1ncc(-c2ccc(Br)cc2)n1CCCCCCn1c(-c2ccc(Br)cc2)cnc1N`, for which the IC50 was 11.1 µM in assay [1]; > 400 µM in assay [2]; 8.4 µM in assay [3]; 8.2 µM in assay [4]; 11.2 µM in assay [5]; 5.8 µM in assay [6]. Moreover, in assay [7], the IC50 is > 400 µM.
Consider `Clc1ccc(-c2cnc(NCCCCCCNc3ncc(-c4ccc(Cl)cc4)[nH]3)[nH]2)cc1`, for which the IC50 in assay [1] stood at 327 µM; in assay [2] it was 96.6 µM; in assay [3], 30.5 µM; in assay [4] it was 24.8 µM; in assay [5], 150 µM; in assay [6], 80.4 µM. For the same molecule, half-maximal inhibition in assay [7] (IC50) required 529 µM.
As for `Nc1ncc(-c2ccc(Cl)cc2)n1CCCCCCCn1c(-c2ccc(Cl)cc2)cnc1N`, the IC50 in assay [1] was 16.2 µM; in assay [2] it was > 400 µM; in assay [3], 3.3 µM; in assay [4], 6.1 µM; in assay [5], 10.6 µM; in assay [6] it was 4.9 µM. Also, the concentration for half-maximal inhibition (IC50) in assay [7] was determined as 200 µM.
On to `Nc1ncc(-c2ccccc2)n1CCCn1c(-c2ccccc2)cnc1N`, for which the IC50 in assay [1] amounted to 572 µM; in assay [2], 62.4 µM; in assay [3], 15.3 µM; in assay [4] it was 26.6 µM; in assay [5], 0.4 µM; in assay [6], 25.2 µM. For the same molecule, in assay [7], the IC50 amounted to 147 µM.
Take `Nc1ncc(-c2ccccc2)n1CCCCCCn1c(-c2ccccc2)cnc1N`: the IC50 in assay [1] is 53.8 µM; in assay [2], > 800 µM; in assay [3], 3 µM; in assay [4], 2.9 µM; in assay [5] it was 51.3 µM; in assay [6], 4 µM. For the same molecule, the IC50 in assay [7] stood at 100 µM.
`c1ccc(-c2cnc(NCCCCNc3ncc(-c4ccccc4)[nH]3)[nH]2)cc1`: the IC50 in assay [1] came to 301 µM; in assay [2], 6.81 µM; in assay [3], 7.7 µM; in assay [4], 12.3 µM; in assay [5], 28.6 µM; in assay [6], 5.9 µM. In assay [7], the IC50 amounted to 49.4 µM.
On to `Nc1ncc(-c2ccc(F)cc2)n1CCCCCCCn1c(-c2ccc(F)cc2)cnc1N`, for which the IC50 in assay [1] is 34 µM; in assay [2], > 100 µM; in assay [3], 2.9 µM; in assay [4] it was 7.2 µM; in assay [5], 23.7 µM; in assay [6] it was 7.1 µM. In addition, half-maximal inhibition in assay [7] (IC50) required 50 µM.
With `c1ccc(-c2cnc(NCCCNc3ncc(-c4ccccc4)[nH]3)[nH]2)cc1`, the 50% inhibitory concentration (IC50) in assay [1] is 292 µM; in assay [2], 2.82 µM; in assay [3], 5.7 µM; in assay [4] it was 4.1 µM; in assay [5], 300 µM; in assay [6], 2.8 µM. In addition, the midpoint of inhibition in assay [7], the IC50, lay at 75.9 µM.
For the molecule `Clc1ccc(-c2cnc(NCCCNc3ncc(-c4ccc(Cl)cc4)[nH]3)[nH]2)cc1`, the IC50 in assay [1] was determined as 23.5 µM; in assay [2] it was 14.7 µM; in assay [3] it was 2.7 µM; in assay [4] it was 4.9 µM; in assay [5], 13 µM; in assay [6], 5.6 µM. In assay [7], this molecule showed a half-inhibitory concentration (IC50) of 11.4 µM.
`c1ccc(-c2cnc(NCCCCCNc3ncc(-c4ccccc4)[nH]3)[nH]2)cc1`: the IC50 came to 108 µM in assay [1]; 19.9 µM in assay [2]; 4.6 µM in assay [3]; 5.2 µM in assay [4]; 180 µM in assay [5]; 1.2 µM in assay [6]. Besides, the IC50 in assay [7] was found to be 59.6 µM.
Consider `Nc1ncc(-c2ccc(Br)cc2)n1CCCCCCCn1c(-c2ccc(Br)cc2)cnc1N`, for which the IC50 in assay [1] is 8.02 µM; in assay [2] it was > 400 µM; in assay [3] it was 1.7 µM; in assay [4], 2.3 µM; in assay [5], 5.5 µM; in assay [6], 1.1 µM. Besides, in assay [7], the IC50 is > 400 µM.
For the molecule `Nc1ncc(-c2ccc(Cl)cc2)n1CCCn1c(-c2ccc(Cl)cc2)cnc1N`, the IC50 worked out at 26.4 µM in assay [1]; 7.56 µM in assay [2]; 4.1 µM in assay [3]; 4.5 µM in assay [4]; 26.4 µM in assay [5]; 3.1 µM in assay [6]. For the same molecule, the IC50 in assay [7] came to 11 µM.
Turning to `Clc1ccc(-c2cnc(NCCCCCNc3ncc(-c4ccc(Cl)cc4)[nH]3)[nH]2)cc1`, the half-inhibitory concentration (IC50) turned out to be 90.2 µM in assay [1]; 224 µM in assay [2]; 3.8 µM in assay [3]; 12 µM in assay [4]; 94.4 µM in assay [5]; 6 µM in assay [6]. This molecule registered an IC50 in assay [7] of 15.2 µM.
Consider `Fc1ccc(-c2cnc(NCCCCCCNc3ncc(-c4ccc(F)cc4)[nH]3)[nH]2)cc1`, for which the IC50 in assay [1] amounted to 28.7 µM; in assay [2], 5.52 µM; in assay [3], 10.3 µM; in assay [4] it was 5.4 µM; in assay [5], 8.9 µM; in assay [6], 10.1 µM. The molecule also came in with an IC50 in assay [7] of 23.8 µM.

By IC50 is commonly meant the midpoint of a concentration-inhibition curve.

Values taken from ChEMBL document CHEMBL4219072, “Enhancing the anti-biofilm activity of 5-aryl-2-aminoimidazoles through nature inspired dimerisation” (Bioorg Med Chem, 2018).
